17 molecules from patent US8394786B2, “Quinazoline derivatives” (Janssen Pharmaceutica N.V., priority 2003, dated 2013) can be followed below.

One assay concerns the target EGFR (Homo sapiens, UniProt P00533). In words: In vitro inhibition of EGFR, Flash Plate or glass-fiber filter technology (C2). The class given is biochemical. The arrangement: 0.5 μg EGFR-kinase domain/well. To be noted: EGFR-kinase domain, 5.0 μM unlabeled ATP; for IC50: read-out: Kinase activity.(C2): pIC50 (converted). Here is the method: The in vitro inhibition of EGFR was assessed using either the Flash Plate technology or the glass-fiber filter technology as described by Davies, S. P. et al., Biochem J. (2000), 351; p. 95-105. The Flash Plate technology is generally described by B. A. Brown et al. in High Throughput Screening (1997), p. 317-328. Editor(s): Devlin, John P. Publisher: Dekker, New York, N.Y.
In the Flash Plate EGFR kinase reaction assay, a kinase substrate consisting of biotinylated poly(L-glutamic acid-L-tyrosine) (poly(GT)biotin), is incubated with the aforementioned protein in the presence of (^33P) radiolabeled ATP. (^33P) phosphorylation of the substrate is subsequently measured as light energy emitted using a streptavidin-coated Flash Plate (PerkinElmer Life Sciences) by trapping and quantifying the binding of the biotin tagged and radiolabeled substrate.
The EGFR kinase reaction is performed at 30° C. for 60 minutes in a 96-well microtiter FlashPlate (PerkinElmer Life Sciences). For each of the tested compounds a full dose response 1·10^−6M to 1·10^−10M has been performed. IRESSA° and Tarceva™ (erlotinib) were used as reference compounds. The 100 μl reaction volume contains 54.5 mM TrisHCl pH 8.0, 10 mM MgCl2, 100 μM Na3VO4, 5.0 μM unlabeled ATP, 1 mM DTT, 0.009% BSA, 0.8 μCi AT^33P, 0.35 μg/well poly(GT)biotin and 0.5 μg EGFR-kinase domain/well.
The reaction is stopped by aspirating the reaction mixture and washing the plate 3× with 200 μl wash/stop buffer (PBS+100 mM EDTA). After the final wash step 200 μl of wash/stop buffer was added to each well and the amount of phosphorylated (^33P) Poly(GT)biotin determined by counting (30 sec/well) in a microtiterplate scintillation counter.
In the glass-fiber filter technology EGFR kinase reaction assay, a kinase substrate consisting of poly(L-glutamic acid-L-tyrosine) (poly(GT)), is incubated with the aforementioned protein in the presence of (^33P) radiolabeled ATP. (^33P) Phosporylation of the substrate is subsequently measured as radioactivity bound on a glassfiber-filter.
The EGFR kinase reaction is performed at 25° C. for 10 minutes in a 96-well microtiterplate. For each of the tested compounds a full dose response 1·10^−6M to 1·10^−10M has been performed. IRESSA° and Tarceva™ (erlotinib) were used as reference compounds. The 25 μl reaction volume contains 60 mM TrisHCl pH 7.5, 3 mM MgCl2, 3 mM Mn Cl2, 3 μM Na3VO4, 50 μg/ml PEG20000, 5.0 μM unlabeled ATP, 1 mM DTT, 0.1 μCi AT^33P, 62.5 ng/well poly(GT) and 0.5 μg EGFR-kinase domain/well.
The reaction is stopped by adding 5 μl of a 3% phosphoric acid solution. 10 μl of the reaction mixture is then spotted onto a Filtermat A filter (Wallac) and washed 3 times for 5 min. in 75 mM phosphoric acid and 1 time for 5 min. in methanol prior to drying and quantification on the Typhoon (Amersham) using a LE phosphorage storage screen.

The next assay concerns SKOV3 cells. In words: Serum starved proliferation assay on the ovarian carcinoma SKOV3 cells (C3). To be noted: EGF stimulated (100 ng/ml, 72 hours, serum free) or 72 hours with compounds, MTT cell viability assay; for IC50: Homo sapiens, SK-OV-3, 72 h, read-out: SKOV3 cell (C3): pIC50 (converted). The class given is cell-based. The method, then:
The ovarian carcinoma cell line (SKOV3) was used in an epidermal growth factor stimulated cell proliferation assay, to assess the inhibitory effect of the compounds on EGF in whole cells.
In a first step the SKOV3 cells were incubated for 24 hours in the presence of 10% FCS serum. In the second step the cells were incubated with the compounds to be tested in a serum free condition (37° C. and 5% (v/v) CO2) and subsequently stimulated for 72 hours with EGF at a final concentration of 100 ng/ml. The effect of the compounds on the EGF stimulation was finally assessed in a standard MTT cell viability assay.
Alternatively, the SKOV3 cells were incubated for 24 hours in the presence of 10% FCS serum. In the second step the cells were incubated for 72 hours with the compounds to be tested and the effect of the compounds on cell proliferation was finally assessed in a standard MTT cell viability assay.
In general terms: Tetrazolium dyes change colour on reduction, which living cells bring about.

Regarding “4,6-ethanediylidene-8H-pyrimido[4,5-b][6,1,12,15]benzoxatriazacyclooctadecine-12,15(16H)-dione, 20-chloro-9,10,11,13,14,17,22-heptahydro-23-methoxy-14-methyl- [Compound 139]”, the “Kinase activity.(C2): pIC50” value on EGFR is on record as 6.4. Moreover, the “SKOV3 cell (C3): pIC50” value with SKOV3 cells is reported as 6.8.

“4,6-ethanediylidene-12H-pyrimido[4,5-b]pyrrolo[2,1-1][6,1,10,13]benzoxatriazacyclohexadecin-12-one, 20-chloro-19-fluoro-8,9,10,11,12a,13,14,15,17,22-decahydro-23-methoxy- [Compound 103]”: at EGFR, the “Kinase activity.(C2): pIC50” value amounted to 7.2. The “SKOV3 cell (C3): pIC50” value in the assay on SKOV3 cells came to 7.3.

Regarding “4,6-ethenopyrimido[4,5-b][6,1,9,14]benzoxatriazacycloheptadecine-9,14(8H,15H)-dione, 19-chloro-10,11,12,13,16,21-hexahydro-22-methoxy- [Compound 150]”, the “Kinase activity.(C2): pIC50” value at EGFR was found to be 7.7. Also, the “SKOV3 cell (C3): pIC50” value in the assay with SKOV3 cells was found to be 5.1.

Consider `COc1cc2ncnc3c2cc1OCCCCNCCc1ccc(Cl)cc1N3` [Compound 32, 4,6-ethanediylidenepyrimido[4,5-b][6,1,11]benzoxadiazacyclopentadecine, 17-chloro-8,9,10,11,12,13,14,19-octahydro-20-methoxy-], for which the IC50 at EGFR is 0.00398 µM; with SKOV3 cells, 0.288 µM.

As to `COc1cc2ncnc3c2cc1OCCNCC(=O)NCCCc1ccc(Cl)cc1N3` [Compound 42, 4,6-ethanediylidenepyrimido[4,5-b][6,1,9,12]benzoxatriazacycloheptadecin-12(13H)-one, 19-chloro-8,9,10,11,14,15,16,21-octahydro-22-methoxy-], the IC50 on EGFR was 0.501 µM; in the assay with SKOV3 cells, 0.0631 µM.

Turning to `COc1cc2ncnc3c2cc1OCCN(C(=O)CN(C)CCO)CC(=O)NCCCc1ccc(Cl)cc1N3` [Compound 43, 4,6-ethanediylidenepyrimido[4,5-b][6,1,9,12]benzoxatriazacycloheptadecin-12(13H)-one, 19-chloro-8,9,10,11,14,15,16,21-octahydro-10-[[(2-hydroxyethyl)methylamino]acetyl]-22-methoxy-], the IC50 was 0.0794 µM at EGFR and 0.501 µM with SKOV3 cells.

Consider `COc1cc2ncnc3c2cc1OCCN(C(=O)CNC(CO)CO)CC(=O)NCCCc1ccc(Cl)cc1N3` [Compound 44, 4,6-ethanediylidenepyrimido[4,5-b][6,1,9,12]benzoxatriazacycloheptadecin-12(13H)-one, 19-chloro-8,9,10,11,14,15,16,21-octahydro-10-[[[2-hydroxy-1-(hydroxymethyl)ethyl]amino]acetyl]-22-methoxy-], for which the IC50 was 0.631 µM on EGFR and 7.94 µM in the assay with SKOV3 cells.

As to `COc1cc2ncnc3c2cc1OCCN(C(=O)CN1CCOC(CO)C1)CC(=O)NCCCc1ccc(Cl)cc1N3` (stereo not shown) [Compound 45, 4,6-ethanediylidenepyrimido[4,5-b][6,1,9,12]benzoxatriazacycloheptadecin-12(13H)-one, 19-chloro-8,9,10,11,14,15,16,21-octahydro-10-[[2-(hydroxymethyl)-4-morpholinyl]acetyl]-22-methoxy-], the figures for the IC50 on EGFR and with SKOV3 cells were 0.158 µM and 10 µM, respectively.

In the case of `COc1cc2ncnc3c2cc1OCCN(C(=O)CNCCc1ccncc1)CC(=O)NCCCc1ccc(Cl)cc1N3` [Compound 46, 4,6-ethanediylidenepyrimido[4,5-b][6,1,9,12]benzoxatriazacycloheptadecin-12(13H)-one, 19-chloro-8,9,10,11,14,15,16,21-octahydro-22-methoxy-10-[[[2-(4-pyridinyl)ethyl]amino]acetyl]-], the IC50 on EGFR was 0.2 µM; in the assay with SKOV3 cells, 7.94 µM.

In the case of `COc1cc2ncnc3c2cc1OCCN(C(=O)CN(C)CCN(C)C)CC(=O)NCCCc1ccc(Cl)cc1N3` [Compound 47, 4,6-ethanediylidenepyrimido[4,5-b][6,1,9,12]benzoxatriazacycloheptadecin-12(13H)-one, 19-chloro-10-[[[2-(dimethylamino)ethyl]methylamino]acetyl]-8,9,10,11,14,15,16,21-octahydro-22-methoxy-], the IC50 at EGFR was 0.126 µM; in the assay on SKOV3 cells it was 1.58 µM.

Regarding `COCCNCC(=O)N1CCOc2cc3c(ncnc3cc2OC)Nc2cc(Cl)ccc2CCCNC(=O)C1` [Compound 48, 4,6-ethanediylidenepyrimido[4,5-b][6,1,9,12]benzoxatriazacycloheptadecin-12(13H)-one, 19-chloro-8,9,10,11,14,15,16,21-octahydro-22-methoxy-10-[[(2-methoxyethyl)amino]acetyl]-], the IC50 is 0.316 µM on EGFR and 1.58 µM with SKOV3 cells.

`COc1cc2ncnc3c2cc1OCCN(C(=O)CN1CCN(C)CC1)CC(=O)NCCCc1ccc(Cl)cc1N3` [Compound 51, 4,6-ethanediylidenepyrimido[4,5-b][6,1,9,12]benzoxatriazacycloheptadecin-12(13H)-one, 19-chloro-8,9,10,11,14,15,16,21-octahydro-22-methoxy-10-[(4-methyl-1-piperazinyl)acetyl]-]: in the assay on SKOV3 cells, the IC50 is 0.398 µM.

For the molecule `COc1cc2ncnc3c2cc1OCCCC=CCC(NC(=O)OC(C)(C)C)C(=O)NCc1ccc(Cl)cc1N3` (stereo not shown) [Compound 110, carbamic acid, (20-chloro-9,10,13,14,15,16,17,22-octahydro-23-methoxy-15-oxo-4,6-ethanediylidene-8H-pyrimido[4,5-b][6,1,15]benzoxadiazacyclooctadecin-14-yl)-, 1,1-dimethylethyl ester], the IC50 on EGFR is 3.98 µM.

Regarding `CCC(C)C1NC(=O)COc2cc3c(ncnc3cc2OC)Nc2ccccc2CNC1=O` (stereo not shown) [Compound 124, 4,6-ethanediylidenepyrimido[4,5-b][6,1,9,12]benzoxatriazacyclopentadecine-9,12(8H,13H)-dione, 10,11,14,19-tetrahydro-20-methoxy-11-(1-methylpropyl)-], the IC50 with SKOV3 cells is 10 µM.

For `COc1cc2ncnc3c2cc1OCC(=O)NC(C)(C)C(=O)NCc1ccc(Cl)cc1N3` [Compound 132, 4,6-ethanediylidenepyrimido[4,5-b][6,1,9,12]benzoxatriazacyclopentadecine-9,12(8H,13H)-dione, 17-chloro-10,11,14,19-tetrahydro-20-methoxy-11,11-dimethyl-], the IC50 in the assay on SKOV3 cells is 10 µM.

As to `COc1cc2ncnc3c2cc1OCC(=O)NCC(=O)NCc1ccccc1N3` [Compound 156, 4,6-ethanediylidenepyrimido[4,5-b][6,1,9,12]benzoxatriazacyclopentadecine-9,12(8H,13H)-dione, 10,11,14,19-tetrahydro-20-methoxy-], in the assay with SKOV3 cells, the IC50 was 10 µM.

For the molecule `COc1cc2ncnc3c2cc1OCC(=O)NCCC(=O)NCc1ccccc1N3` [Compound 157, 4,6-ethanediylidene-8H-pyrimido[4,5-b][6,1,9,13]benzoxatriazacyclohexadecine-9,13(10H,14H)-dione, 11,12,15,20-tetrahydro-21-methoxy-], the IC50 in the assay on SKOV3 cells is 10 µM.
